Measurements as given in patent US11420922B2, “Hydroxylated tropolone inhibitors of nucleotidyl transferases in herpesvirus and Hepatitis B and uses therefor” (Saint Louis University, priority 2015, dated 2022).
Where two headings read alike, the source gives them in different places.

Key:
HSV-2 = test: Anti-HSV-2 replication assay in Vero cells, titers by plaque assay; format: cell-based, herpes simplex virus 2; conditions: for log reduction at 5 µM / log reduction at 50 µM: Human alphaherpesvirus 2, Vero, 24 h; for log reduction at 5 µM: read-out: HSV-2 Log suppression 5 μM; for log reduction at 50 µM: read-out: HSV-2 Log suppression 50 μM
HSV-1 = test: Anti-HSV-1 replication assay in Vero cells, titers by plaque assay; format: cell-based, herpes simplex virus 1; conditions: Human alphaherpesvirus 1, Vero; for log reduction at 5 µM / log reduction at 50 µM: 24 h; for log reduction at 5 µM: read-out: HSV-1 Log suppression 5 μM; for log reduction at 50 µM: read-out: HSV-1 Log suppression 50 μM; for log reduction at 1.5 µM: read-out: HSV-1 Log suppression 1.5 μM
Description: Vero cells were maintained in Dulbecco's modified Eagle's medium (DMEM) containing 3% newborn calf serum, 3% bovine growth serum, 2 mM L-glutamine and 100 IU/mL penicillin and 0.1 mg/mL streptomycin (P/S). HSV-1 #6 and HSV-2 #1 are de-identified clinical isolates from the Saint Louis University Hospital. Stocks were prepared after a single passage in cell culture and were titered by standard plaque assay (Knipe and Spang, 1982). Wild-type HSV-2 used in FIG. 3 was laboratory strain 333. […] Virus stocks were grown and titered on Vero cells (Morrison and Knipe, 1996).
(§1) Compounds to be screened were diluted in PBS supplemented to contain 2% newborn calf serum and 1% glutamine, and added in 100 μL volume to confluent cell monolayers in 24-well cluster plates. Immediately thereafter HSV-1 and HSV-2, diluted in the supplemented PBS medium, were added to the wells in 50 μl volume such that the final concentration of compound was 50 μM and 5 μM and the multiplicity of infection was 0.1. The plates were incubated at 37° C. for 1 hour and then virus-containing inoculum was removed and the wells were washed once in PBS. Compounds, diluted to 50 μM and 5 μM in DMEM supplemented to contain 2% newborn calf serum and 1% each penicillin/streptomycin, were added at 0.5 mL/well. Plates were incubated at 37° C. an additional 23 hr, and then the plates were visually inspected through a phase contrast microscope for cytopathic effect, and for toxic effect. […] The entire contents of each well were collected by scraping. Samples were frozen at −80° C., and then subsequently thawed, sonicated, and infectious virus titer was determined by standard plaque assay on Vero cell monolayers. Because the compounds were dissolved at 10 mM in 100% DMSO, equivalent dilutions of DMSO were added to additional wells as a control for effects of the diluent. Each experiment was repeated once. EC50 values were determined as above except that serial dilutions of the compound to be tested were prepared starting at 50 μM. The inhibitory values were calculated by non-linear curve-fitting in GraphPad Prism.

HBV = HBV replication assay in HepDES19 cells; format: cell-based; conditions: Hepatitis B virus; HepDES19 cells; read-out: EC50 (HBV assay)
Description: HBV replication assay. Inhibition of HBV replication was measured in HepDES19 cells as previously described (Cai, et al., 2014). Cells were seeded into 6-well plates and incubated in DMEM/F12, 10% fetal bovine serum (FBS), 1% penicillin/streptomycin (P/S) with 1 μg/ml tetracycline. Tetracycline was withdrawn after 24 hours. The test compound was applied to duplicate wells 48 hours later in medium containing a final DMSO concentration of 1%, and medium containing the compound was refreshed daily for the following two days. Cells were harvested and non-encapsidated nucleic acids were digested with micrococcal nuclease (New England Biolabs). HBV DNA was purified from capsids using QIAamp Cador Pathogen Mini Kit (Qiagen) with proteinase K incubation overnight at 37° C. TaqMan PCR was performed for 40 cycles at an annealing temperature of 60° C. Primers and probe (IDT Inc.) for the plus-polarity strand were: 5′[…]3′ (SEQ ID NO: 1); 5′[…]3′ (SEQ ID NO: 2); 5′/56-FAM/[…]/ZEN/[…]/3IABkFQ (SEQ ID NO: 3). Primers and probe for the minus-polarity strand were: 5′[…]3′ (SEQ ID NO: 4); 5′[…]3′ (SEQ ID NO: 5); 5′/56-FAM/[…]/ZEN/[…]/3IABkFQ (SEQ ID NO: 6).

HSV = test: Anti-HSV SAR summary, HSV type not separated; format: cell-based, herpes simplex virus; conditions: grouped by activity at 50, 5 and 0.5 μM
Description: as §1
A series of over 20 synthetic αHTs were synthesized and tested to both confirm the initial SAR, and to provide leads for further optimization pursuits (FIG. 5). […] Specifically, biphenyl-containing molecules #118 and 115 inhibit HSV replication by up to 4 log10 at 200 nM. The increased potency over close analogs #111 and 113 confirmed the importance of added lipophilicity.

[1] = Cytotoxicity reported with the HBV assay (Table 4); format: cell-based; conditions: human
Description: Qualitative assessments of cytotoxicity were done visually by inspecting the cells in the primary screening assays. For the quantitative assays, cells were plated in 96-well plates at 1.0×10^4 per well. The next day the compounds were added at 0.78 to 100 μM in a final concentration of 1% (v/v) DMSO, and the cells were incubated for 24 hours under conditions identical to those employed for the viral replication inhibition assays. Mitochondrial toxicity was measured by incubating the cells with 0.25 mg/mL thiazolyl blue tetrazolium bromide (MTT, Sigma Aldrich Chemical Co.), the cultures were incubated for 60 min, metabolites were solubilized in acidic isopropanol, and absorbance was read at 570 nm. CC50 values were calculated by non-linear curve fitting using GraphPad Prism.

[2] = 5 μM, moi 0.1, 24 h, vs DMSO, +/− are qualitative, key not given
[3] = 50 μM, moi 0.1, 24 h, vs DMSO, +/−/T are qualitative, key not given
[4] = hepatoma cells, read-out: CC50 (HBV assay table)

Structure (SMILES)	log reduction at 5 µM (HSV-2)	log reduction at 50 µM (HSV-2)	log reduction at 5 µM (HSV-1)	log reduction at 50 µM (HSV-1)	CC50 at 24 h [1, 4]	log reduction at 1.5 µM (HSV-1)	further results
Nc1ccn(C[C@@H](CO)OCP(=O)(O)O)c(=O)n1 [CDV, Cidofovir, reference compound]							log reduction at 5 µM (HSV-2; [2]): 0.38; log reduction at 50 µM (HSV-2; [3]): 1.19; log reduction at 5 µM (HSV-1; [2]): 0.77; log reduction at 50 µM (HSV-1; [3]): 2.67
COC(=O)c1c(C)cc(O)c(=O)c(O)c1C(=O)OC [Compound 106]	-0.55	2.87	-0.07	4.11			EC50 (HBV): 2.7 µM; anti-HSV SAR group, in words (HSV): weakest inhibitors
COC(=O)c1c(CCl)cc(O)c(=O)c(O)c1C(=O)OC [Compound 107]					71 µM		
COCc1cc(O)c(=O)c(O)c(C(=O)OC)c1C(=O)OC [Compound 108]	0		0		81 µM		anti-HSV SAR group, in words (HSV): weakest inhibitors
CCOC(=O)c1cc(O)c(=O)c(O)cc1C [Compound 109]	-0.22	4.15	0.21	3.99			anti-HSV SAR group, in words (HSV): weakest inhibitors
Cc1cc(O)c(=O)c(O)cc1-c1ccc([N+](=O)[O-])cc1 [Compound 112]	-0.4	3.2	0.02	5.25			EC50 (HBV): 2.5 µM; anti-HSV SAR group, in words (HSV): weakest inhibitors
Cc1cc(O)c(=O)c(O)cc1-c1ccc(Cl)cc1 [Compound 144]	0.65	5.18	-0.34	3.83			anti-HSV SAR group, in words (HSV): weakest inhibitors
O=c1c(O)cccc2cc(O)c(O)c(O)c12 [Compound 195, purpurogallin]	-0.04	0.11	0.17	0.2			
Cc1ccc(O)c(=O)c(O)c1 [Compound 210]	4.04	5.55	4.32	4.56			
Cc1cc(O)c(=O)c(O)cc1-c1cccc(-c2ccccc2)c1 [Compound 231]					16 µM		EC50 (HBV): 10 µM
Cc1cc(O)c(=O)c(O)cc1-c1cccc(-c2ccc3ccccc3c2)c1 [Compound 232]					55 µM		EC50 (HBV): 9.6 µM
Cc1cc(O)c(=O)c(O)cc1-c1ccc(-c2ccc3ccccc3c2)cc1 [Compound 233]						2.63	
Cc1cc(O)c(=O)c(O)cc1-c1cccc(-c2cccc3ccccc23)c1 [Compound 234]						2.71	
Cc1cc(O)c(=O)c(O)cc1-c1ccc(-c2cccc3ccccc23)cc1 [Compound 235]					30 µM		EC50 (HBV): 5.2 µM
Cc1cc(O)c(=O)c(O)cc1C(=O)c1cccc(-c2ccccc2)c1 [Compound 255]						5.02	
Cc1cc(O)c(=O)c(O)cc1C(=O)c1ccc(-c2cccc3ccccc23)cc1 [Compound 256]						5.18	

Structure (SMILES)	log reduction at 5 µM (HSV-2)	log reduction at 50 µM (HSV-2)	log reduction at 5 µM (HSV-1)	log reduction at 50 µM (HSV-1)	CC50 at 24 h [1, 4]	log reduction at 1.5 µM (HSV-1)	further results
Cc1cc(O)c(=O)c(O)cc1C(=O)c1cccc(-c2cccc3ccccc23)c1 [Compound 257]					32 µM	4.82	EC50 (HBV): 8.3 µM
Cc1cc(O)c(=O)c(O)cc1C(=O)c1ccc(-c2ccc3ccccc3c2)cc1 [Compound 258]					28 µM	5.04	EC50 (HBV): 8.8 µM
Cc1cc(O)c(=O)c(O)cc1C(=O)c1cccc(-c2ccc3ccccc3c2)c1 [Compound 259]					21 µM	5.05	EC50 (HBV): 2.8 µM
Cc1cc(O)c(=O)c(O)cc1C(=O)c1ccc(-c2ccncc2)cc1 [Compound 260]						0.5	
O=c1c(O)ccc(Br)cc1O [Compound 261]					> 100 µM		
O=c1c(O)ccc(-c2ccccc2)cc1O [Compound 262]					96 µM		
O=c1c(O)ccc(-c2ccc(-c3ccccc3)cc2)cc1O [Compound 264]					28 µM		
O=c1c(O)ccc(-c2ccco2)cc1O [Compound 265]					40 µM		
O=c1c(O)ccc(-c2ccncc2)cc1O [Compound 266]					32 µM		
O=c1c(O)ccc(-c2cnc3ccccc3c2)cc1O [Compound 267]					25 µM		
COC(=O)c1c(C)cc(OC)c(=O)c(O)c1OC [Compound 269]		4.67	1.48	3.76	> 100 µM	0.24	HSV-2 Log suppression 1.5 μM (HSV-2; 1.5 μM): 4.04 log10
CCOC(=O)c1c(C)cc(O)c(=O)c(O)c1O [Compound 270]	6.32	6.9	5.97	6.47			
O=C1OCc2cc(O)c(=O)c(O)c(O)c21 [Compound 271]	1.53	2.94	0.47	1.87		0.21	
COC(=O)c1cc(O)c(=O)c(OC)cc1C [Compound 273]	6.32	6.9	5.75	6.05		2.12	
COC(=O)c1cc(O)c(=O)c(O)cc1C [Compound 274]					> 100 µM	0.59	
COC(=O)c1c2c(cc(O)c(=O)c1O)COC2=O [Compound 280]							CC50 at 24 h [1]: 32 µM
